These are literature values, as cited in patent US6874277B2, “Method and composition for promoting and controlling growth of plants” (priority 1988, dated 2005).

The data set concerns tomato variety San Jose Extra Early. The arrangement: Dry wt increase: unit not given here. As to conditions: duration 21 days.

Read-outs that look alike come from different tables or passages of the source.

With `OC[C@H]1O[C@@](CO)(O[C@H]2O[C@H](CO)[C@@H](O)[C@H](O)[C@H]2O)[C@@H](O)[C@@H]1O` [10% sucrose solution, sucrose], the Dry wt increase is, setting by setting: (1 spray) 16; (2 sprays) 41; (3 sprays) 50; (5 sprays) 93; (10 sprays) 163; (20 sprays) 408. The “Mean total dry wt” value (1 spray, 0 sprays 188) is 204 mg; the “Mean total dry wt” value (2 sprays) was 229 mg; the “Mean total dry wt” value (3 sprays) is on record as 238 mg; the “Mean total dry wt” value (5 sprays) is 281 mg; the “Mean total dry wt” value (10 sprays) is listed as 352 mg; the “Mean total dry wt” value (20 sprays) is given as 596 mg.
